From patent US11498899B2, “Nitrone herbicides” (FMC Corporation, priority 2016, dated 2022)

Key:
[1] = system: ryegrass, Italian (Italian ryegrass, Lolium multiflorum); assay: Test A preemergence, visual injury rating 0-100; format: in vivo; conditions: for Ryegrass, Italian plant response rating (0 to 100 scale): 500 g ai/ha
[2] = system: foxtail, giant (giant foxtail, Setaria faberii); assay: Test A preemergence, visual injury rating 0-100; format: in vivo
[3] = system: pigweed (Amaranthus retroflexus); assay: Test A preemergence, visual injury rating 0-100; format: in vivo
[4] = system: ragweed (common ragweed, Ambrosia elatior); assay: Test A preemergence, visual injury rating 0-100; format: in vivo
kochia (Kochia scoparia) [5] = assay: Test A preemergence, visual injury rating 0-100; format: in vivo
[6] = system: barnyardgrass (Echinochloa crus-galli); assay: Test A preemergence, visual injury rating 0-100 (0 no effect, 100 complete control); format: in vivo
[7] = system: barnyardgrass (Echinochloa crus-galli); assay: Test B flooded paddy test, visual rating 0-100; conditions: Flood, 250 g ai/ha, applied to paddy water, rated after 13 to 15 days
[8] = system: ryegrass, Italian (Italian ryegrass, Lolium multiflorum); assay: Test A postemergence, visual injury rating 0-100; format: in vivo; conditions: 0 to 100 scale
[9] = system: blackgrass (Alopecurus myosuroides); assay: Test A postemergence, visual injury rating 0-100; format: in vivo; conditions: 0 to 100 scale
[10] = system: foxtail, giant (giant foxtail, Setaria faberii); assay: Test A postemergence, visual injury rating 0-100; format: in vivo; conditions: 0 to 100 scale
[11] = system: pigweed (Amaranthus retroflexus); assay: Test A postemergence, visual injury rating 0-100; format: in vivo; conditions: 0 to 100 scale
corn (Zea mays) = assay: Test A postemergence, visual injury rating 0-100; format: in vivo; conditions: 0 to 100 scale
[12] = system: ragweed (common ragweed, Ambrosia elatior); assay: Test A postemergence, visual injury rating 0-100; format: in vivo; conditions: 0 to 100 scale
[13] = system: galium (catchweed bedstraw, Galium aparine); assay: Test A postemergence, visual injury rating 0-100; format: in vivo; conditions: 0 to 100 scale
kochia (Kochia scoparia) [14] = assay: Test A postemergence, visual injury rating 0-100; format: in vivo; conditions: 0 to 100 scale
[15] = system: wheat (Triticum aestivum); assay: Test A postemergence, visual injury rating 0-100; format: in vivo; conditions: 0 to 100 scale
[16] = system: barnyardgrass (Echinochloa crus-galli); assay: Test A postemergence, visual injury rating 0-100; format: in vivo; conditions: 0 to 100 scale
rice (Oryza sativa) = assay: Test B flooded paddy test, visual rating 0-100 (0 no effect, 100 complete control); conditions: Flood, 250 g ai/ha, applied to paddy water, rated after 13 to 15 days
[17] = system: ducksalad (Heteranthera limosa); assay: Test B flooded paddy test, visual rating 0-100; conditions: Flood, 250 g ai/ha, applied to paddy water, rated after 13 to 15 days
[18] = 125 g ai/ha, 0 to 100 scale (0 no effect, 100 complete control), approx. 10 days

SMILES	Ryegrass, Italian plant response rating (0 to 100 scale) [1]	Foxtail, Giant plant response rating (0 to 100 scale) ([2]; 500 g ai/ha)	Pigweed plant response rating (0 to 100 scale) ([3]; 500 g ai/ha)	Ragweed plant response rating (0 to 100 scale) ([4]; 500 g ai/ha)	Kochia plant response rating (0 to 100 scale) (kochia (Kochia scoparia) [5]; 500 g ai/ha)	Barnyardgrass plant response rating (0 to 100 scale) ([6]; 500 g ai/ha)	Barnyardgrass plant response rating (0 to 100 scale) [7]	Ryegrass, Italian plant response rating ([8]; 125 g ai/ha)	Ryegrass, Italian plant response rating ([8]; 500 g ai/ha)	Blackgrass plant response rating ([9]; 125 g ai/ha)	Blackgrass plant response rating ([9]; 500 g ai/ha)	Foxtail, Giant plant response rating ([10]; 125 g ai/ha)	Foxtail, Giant plant response rating ([10]; 500 g ai/ha)	Pigweed plant response rating ([11]; 125 g ai/ha)	Pigweed plant response rating ([11]; 500 g ai/ha)	Corn plant response rating (corn (Zea mays); 125 g ai/ha)	Corn plant response rating (corn (Zea mays); 500 g ai/ha)	Ragweed plant response rating ([12]; 125 g ai/ha)	Ragweed plant response rating ([12]; 500 g ai/ha)	Galium plant response rating ([13]; 125 g ai/ha)	also measured
CCOc1cc(OC)cc(C2CC(C)=[N+]([O-])C2C(=O)Nc2cccc(F)c2F)c1 (racemic) [Compound 116]	80	90	0	0	0	90	0	0	80	80	80	60	90	0	0	30	60	0	0	0	Foxtail, Giant plant response rating (0 to 100 scale) ([2]; 125 g ai/ha): 90; Pigweed plant response rating (0 to 100 scale) ([3]; 125 g ai/ha): 0; Ragweed plant response rating (0 to 100 scale) ([4]; 125 g ai/ha): 0; Kochia plant response rating (0 to 100 scale) (kochia (Kochia scoparia) [5]; 125 g ai/ha): 0; Barnyardgrass plant response rating (0 to 100 scale) ([6]; 125 g ai/ha): 80; Galium plant response rating ([13]; 500 g ai/ha): 20; Kochia plant response rating (kochia (Kochia scoparia) [14]; 125 g ai/ha): 0; Kochia plant response rating (kochia (Kochia scoparia) [14]; 500 g ai/ha): 20; Wheat plant response rating ([15]; 125 g ai/ha): 20; Wheat plant response rating ([15]; 500 g ai/ha): 70; Barnyardgrass plant response rating ([16]; 125 g ai/ha): 50; Barnyardgrass plant response rating ([16]; 500 g ai/ha): 80; Rice plant response rating (0 to 100 scale) (rice (Oryza sativa)): 0; Ducksalad plant response rating (0 to 100 scale) [17]: 0
CC1=[N+]([O-])C(C(=O)Nc2cccc(F)c2F)C(c2cccc(Cl)c2C)C1 (racemic) [Compound 117]	90	90	80	90	80	90	0	30	60	60	70	80	90	0	70	30	70	0	60	70	Ryegrass, Italian plant response rating [1, 18]: 60; Foxtail, Giant plant response rating [2, 18]: 90; Pigweed plant response rating [3, 18]: 60; Ragweed plant response rating [4, 18]: 30; Kochia plant response rating (kochia (Kochia scoparia) [5]; [18]): 10; Barnyardgrass plant response rating [6, 18]: 90; Galium plant response rating ([13]; 500 g ai/ha): 70; Kochia plant response rating (kochia (Kochia scoparia) [14]; 125 g ai/ha): 0; Kochia plant response rating (kochia (Kochia scoparia) [14]; 500 g ai/ha): 60; Wheat plant response rating ([15]; 125 g ai/ha): 20; Wheat plant response rating ([15]; 500 g ai/ha): 80; Barnyardgrass plant response rating ([16]; 125 g ai/ha): 60; Barnyardgrass plant response rating ([16]; 500 g ai/ha): 80; Rice plant response rating (0 to 100 scale) (rice (Oryza sativa)): 0; Ducksalad plant response rating (0 to 100 scale) [17]: 0
